According to article PMC10269775, “Penicillin-Binding Protein Occupancy Dataset for 18 β-Lactams and 4 β-Lactamase Inhibitors in Neisseria gonorrhoeae” (Microbiology Spectrum, 2023):
In brackets after ≈: the same amount, converted by molar mass. Read-outs that look alike come from different tables or passages of the source.

How the values were obtained:
PBP1 [1] = target: T1, PBP1 (Neisseria gonorrhoeae, UniProt O05131, A375T/F666S); experiment: PBP-binding assay (Bocillin FL) in isolated membrane preparations; parameters: species or system Neisseria gonorrhoeae ATCC 49226
T1 construct: endogenous in cells; host or cells: N. gonorrhoeae ATCC 49226, isolated membrane preparation
From the text: (§1) Bacterial membranes were collected by ultracentrifugation.

PBP2 [2] = target: T2, PBP2 (Neisseria gonorrhoeae, UniProt P08149, H541N); experiment: as above; parameters: species or system Neisseria gonorrhoeae ATCC 19424
T2 construct: endogenous in cells; host or cells: N. gonorrhoeae ATCC 19424, isolated membrane preparation

PBP1 [3] = target: T3, PBP1 (Neisseria gonorrhoeae, UniProt O05131); experiment: as above; settings: strain ATCC 19424
T3 construct: endogenous in cells; host or cells: N. gonorrhoeae ATCC 19424, isolated membrane preparation
From the text: as §1

[4] = system: N. gonorrhoeae ATCC 49226; experiment: MIC, CLSI broth microdilution; type: cell-based, Neisseria gonorrhoeae; settings: for MIC: strain ATCC 49226; for MIC increase for strain ATCC 49226: ATCC 49226 versus ATCC 19424
PBP3 [5] = target: T4, PBP3 (Neisseria gonorrhoeae, UniProt Q5FAB9); settings: read-out: IC50 PBP3; strain ATCC 19424; membrane preparation, 30 min drug then Bocillin FL
T4 sequence (Q5FAB9 22-469): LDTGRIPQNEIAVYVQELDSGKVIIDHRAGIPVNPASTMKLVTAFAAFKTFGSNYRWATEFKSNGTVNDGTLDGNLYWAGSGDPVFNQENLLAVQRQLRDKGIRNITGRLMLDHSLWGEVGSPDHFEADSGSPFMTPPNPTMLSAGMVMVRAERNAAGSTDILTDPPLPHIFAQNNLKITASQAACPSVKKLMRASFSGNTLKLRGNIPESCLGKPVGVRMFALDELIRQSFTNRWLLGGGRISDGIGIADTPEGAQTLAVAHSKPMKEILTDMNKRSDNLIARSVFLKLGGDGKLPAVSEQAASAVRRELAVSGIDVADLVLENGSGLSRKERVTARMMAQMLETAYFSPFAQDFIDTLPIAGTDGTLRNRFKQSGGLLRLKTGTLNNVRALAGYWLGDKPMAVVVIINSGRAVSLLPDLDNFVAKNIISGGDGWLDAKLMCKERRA

[6] = system: N. gonorrhoeae ATCC 19424; experiment: MIC, CLSI broth microdilution; type: cell-based; settings: Neisseria gonorrhoeae, ATCC19424, strain ATCC 19424
PBP1, PBP2 and PBP3 [7] = target: PBP1, PBP2 and PBP3 (Neisseria gonorrhoeae, UniProt P08149, A510V/A516G/A574V/F504L/H541N/I556V/I566V/K555Q/P552V); type: binding, Neisseria gonorrhoeae ATCC 49226; settings: read-out: min. IC50 (minimum observed IC50 value); strain ATCC 49226
PBP2 [8] = target: T5, PBP2 (Neisseria gonorrhoeae, UniProt P08149, A510V/A516G/A574V/F504L/H541N/I556V/I566V/K555Q/P552V); experiment: biochemical; type: binding, Neisseria gonorrhoeae ATCC 49226
T5 construct: endogenous in cells; host or cells: N. gonorrhoeae ATCC 49226, isolated membrane preparation

PBP3 [9] = target: T4, PBP3; settings: read-out: IC50 PBP3; strain ATCC 49226; membrane preparation, 30 min drug then Bocillin FL
PBP1, PBP2 and PBP3 [10] = target: PBP1, PBP2 and PBP3 (Neisseria gonorrhoeae, UniProt P08149, H541N); type: binding, Neisseria gonorrhoeae ATCC 19424; settings: read-out: min. IC50 (minimum observed IC50 value); strain ATCC 19424
[11] = system: N. gonorrhoeae ATCC 19424 and ATCC 49226; experiment: MIC, summary over both strains; type: cell-based, Neisseria gonorrhoeae; settings: for times more active: compared with imipenem
PBP1, PBP2 and PBP3 [12] = type: binding, Neisseria gonorrhoeae ATCC 19424; settings: strain ATCC 19424
PBP2 [13] = target: PBP2 (Neisseria gonorrhoeae, UniProt P08149); settings: read-out: IC50 for PBP2; across both strains ATCC 19424 and ATCC 49226
PBP1, PBP2 and PBP3 [14] = target: T6, PBP1, PBP2 and PBP3 (Neisseria gonorrhoeae, UniProt Q5FAB9); type: binding, Neisseria gonorrhoeae ATCC 49226; settings: read-out: min. IC50 (minimum observed IC50 value); strain ATCC 49226
T6 sequence (Q5FAB9 22-469): T4 sequence (Q5FAB9 22-469)

[15] = IC50 PBP1, strain ATCC 49226, membrane preparation, 30 min drug then Bocillin FL
[16] = IC50 PBP2, strain ATCC 19424, membrane preparation, 30 min drug then Bocillin FL
[17] = membrane preparation, 30 min drug then Bocillin FL, read-out: IC50 PBP1 (converted)
[18] = Neisseria gonorrhoeae, ATCC49226, read-out: MIC
[19] = Neisseria gonorrhoeae, ATCC49226, read-out: MIC (Table S1)
[20] = IC50 PBP2, strain ATCC 49226, membrane preparation, 30 min drug then Bocillin FL

Row | SMILES | IC50 (PBP1 [1]; [15]) [nM] | IC50 (PBP2 [2]; [16]) [nM] | IC50 (PBP1 [3]; [17]) [nM] | MIC [4, 18] [µg/mL] | MIC [4, 19] [µg/mL] | IC50 (PBP3 [5]) [nM] | MIC ([6]; read-out: MIC) [µg/mL] | MIC ([6]; read-out: MIC (Table S1)) [µg/mL] | IC50 (PBP1, PBP2 and PBP3 [7]) [nM] | IC50 (PBP2 [8]; [20]) [nM] | IC50 (PBP3 [9]) [nM] | IC50 (PBP1, PBP2 and PBP3 [10]) [nM] | also measured
1 | Cn1c(N)c(NC(=O)NCCN)c[n+]1CC1=C(C(=O)O)N2C(=O)[C@@H](NC(=O)/C(=N\OC(C)(C)C(=O)[O-])c3nsc(N)n3)[C@H]2SC1 [TOL, ceftolozane] | > 3000 | 60 | > 3000 | 0.25 (≈ 0.375 µM) | 0.25 (≈ 0.375 µM) | > 3000 | 0.032 (≈ 0.048 µM) | 0.032 (≈ 0.048 µM) | 405 | 405 | > 3000 | 60 | MIC [4]: 0.250 µg/mL (≈ 0.375 µM)
2 | C[C@@H](O)[C@H]1C(=O)N2C(C(=O)O)=C(S[C@@H]3CN[C@H](C(=O)N(C)C)C3)[C@H](C)[C@H]12 [MEM, meropenem] | 1170 |  | 626 | 0.016 (≈ 0.0417 µM) | 0.016 (≈ 0.0417 µM) |  | 0.008 (≈ 0.0209 µM) | 0.008 (≈ 0.0209 µM) |  |  |  |  | IC50 (PBP2 [2]; IC50 PBP2 (Table S1), strain ATCC 19424): 104 nM; times more active [11]: 8 times
3 | C[C@@H](O)[C@H]1C(=O)N2C(C(=O)O)=C(S[C@@H]3CN[C@H](C(=O)Nc4cccc(C(=O)O)c4)C3)[C@H](C)[C@H]12 [ETP, ertapenem] | 1200 | 84.1 | 1010 | 0.008 (≈ 0.0168 µM) | 0.008 (≈ 0.0168 µM) |  | 0.004 (≈ 0.00841 µM) | 0.004 (≈ 0.00841 µM) |  | 21 |  |  | times more active [11]: 8 times
4 | C[C@@H](O)[C@H]1C(=O)N2C(C(=O)O)=C(S[C@@H]3CN[C@H](CNS(N)(=O)=O)C3)[C@H](C)[C@H]12 [DOR, doripenem] | 2570 | 143 | 2690 | 0.032 (≈ 0.0761 µM) | 0.032 (≈ 0.0761 µM) |  | 0.004 (≈ 0.00951 µM) | 0.004 (≈ 0.00951 µM) |  | 190 |  |  | IC50 (PBP2 [8]; IC50 PBP2 (Table S1), strain ATCC 49226): 214 nM; min. IC50 (minimum observed IC50 value) (PBP1, PBP2 and PBP3 [12]): 0.01 µg/mL
5 | CCO/N=C(\C(=O)N[C@@H]1C(=O)N2C(C(=O)[O-])=C(Sc3nc(-c4cc[n+](C)cc4)cs3)CS[C@H]12)c1nsc(N)n1 [CPT, ceftaroline] | > 3310 | 248 | > 3310 | 0.5 (≈ 0.827 µM) | 0.5 (≈ 0.827 µM) | 3140 | 0.032 (≈ 0.0529 µM) | 0.032 (≈ 0.0529 µM) | 347 | 347 | 2130 | 248 | MIC increase for strain ATCC 49226 [4]: 16 fold
6 | C[C@]1(Cn2ccnn2)[C@H](C(=O)O)N2C(=O)C[C@H]2S1(=O)=O [TZ, tazobactam] | 83300 | 3560 | 63300 | 1 (≈ 3.33 µM) | 1 (≈ 3.33 µM) | 15700 | 0.125 (≈ 0.416 µM) | 0.125 (≈ 0.416 µM) | 4800 | 4800 | 18900 | 3560 | IC50 (PBP1 [1]; IC50 PBP1 (Table S1), strain ATCC 49226): 83600 nM; IC50 (PBP1 [3]; read-out: IC50 PBP1 (Table S1) (converted)): 64000 nM
7 | CC(C)(O/N=C(\C(=O)N[C@@H]1C(=O)N2C(C(=O)[O-])=C(C[n+]3ccccc3)CS[C@H]12)c1csc(N)n1)C(=O)O [CAZ, ceftazidime] | > 3660 | 18.3 | > 3660 | 0.032 (≈ 0.0585 µM) | 0.032 (≈ 0.0585 µM) | > 3660 | 0.016 (≈ 0.0293 µM) | 0.016 (≈ 0.0293 µM) | 18.3 | 18.3 | > 3660 | 18.3 | IC50 (PBP2 [13]): 18.3 nM
8 | CO/N=C(\C(=O)N[C@@H]1C(=O)N2C(C(=O)O)=C(COC(C)=O)CS[C@H]12)c1csc(N)n1 [CTX, cefotaxime] | > 4390 | 22 | 4060 | 0.008 (≈ 0.0176 µM) | 0.008 (≈ 0.0176 µM) | 3140 | 0.004 (≈ 0.00878 µM) | 0.004 (≈ 0.00878 µM) | 22 | 22 | 2240 | 22 | IC50 (PBP2 [13]): 22 nM
9 | CC1(C)S[C@@H]2[C@H](NC(=O)[C@H](C(=O)O)c3ccsc3)C(=O)N2[C@H]1C(=O)O [TIC, ticarcillin] | > 5200 |  | > 5200 | 0.5 (≈ 1.3 µM) | 0.5 (≈ 1.3 µM) | 2730 | 0.016 (≈ 0.0416 µM) | 0.016 (≈ 0.0416 µM) |  | > 5200 | 1640 | 494 | IC50 (PBP2 [2]; strain ATCC 19424, membrane preparation, 30 min drug then Bocillin FL, read-out: IC50 PBP2 (converted)): 494 nM; IC50 (PBP1, PBP2 and PBP3 [14]): 1640 nM
10 | C=CC1=C(C(=O)O)N2C(=O)[C@@H](NC(=O)/C(=N\OCC(=O)O)c3csc(N)n3)[C@H]2SC1 [CFM, cefixime] | > 4410 | 22.1 | 2030 | 0.016 (≈ 0.0353 µM) | 0.016 (≈ 0.0353 µM) | > 4410 | 0.004 (≈ 0.00882 µM) | 0.004 (≈ 0.00882 µM) | 44.1 | 44.1 | > 4410 | 22.1 | MIC increase for strain ATCC 49226 [4]: 4 fold; IC50 (PBP2 [13]): 22.1 nM
11 | C[C@@H](O)[C@H]1C(=O)N2C(C(=O)O)=C(SCCN=CN)C[C@H]12 [IPM, imipenem] | 2670 | 234 | 1340 | 0.064 (≈ 0.214 µM) | 0.064 (≈ 0.214 µM) |  | 0.032 (≈ 0.107 µM) | 0.032 (≈ 0.107 µM) |  | 568 |  |  | MIC ([11]; Neisseria gonorrhoeae, across the two ATCC strains): 0.032 to 0.064 µg/mL (≈ 0.107 to 0.214 µM)
